Assay in all cases: Glasshouse assay for herbicidal activity (pre- and post-emergence), percentage phytotoxicity
What all share (format): in vivo

In one experiment the test system is Avena fatua (AVEFA). To be noted: Avena fatua. The protocol: (§1) Test—Glasshouse Assay for Herbicidal Activity
(§2) Seeds of a variety of monocotyledonous and dicotyledonous test plants are sown in standard soil in pots. The plants are cultivated for one day (for pre-emergence (PRE)) or for about 12 days (for post-emergence (POST)) under controlled conditions in a glasshouse (warm climate species at 24/18° C., cool climate species at 20/16° C., both at day/night; 16 hours light; 65% humidity).
(§3) The test plants are then grown on, in a glasshouse (greenhouse) under controlled conditions (warm climate species at 24/18° C., cool climate species at 20/16° C., both at day/night; 16 hours light; 65% humidity) and are watered twice daily. 15 days after application of the test herbicide (15 DAA) (for post-emergence), and 20 days after application of the test herbicide (20 DAA) (for pre-emergence), the test plants are evaluated visually, and an assessed percentage phytotoxicity score is given for each herbicidal application on each plant species (with 100%=total damage to plant; 0%=no damage to plant).
(§4) The plant species tested are as follows: Alopecurus myosuroides (ALOMY), Avena fatua (AVEFA), Lolium perenne (LOLPE), Echinochloa crus-galli (ECHCG).

The subject of experiment [1] is Echinochloa crus-galli (ECHCG). To be noted: Echinochloa crus-galli. The protocol:
as §1, §2, §3, §4

Another experiment deals with Lolium perenne (LOLPE). Particulars: Lolium perenne. The protocol:
as §1, §2, §3, §4

In experiment [2] the test system is Alopecurus myosuroides (ALOMY). Particulars: Alopecurus myosuroides. The protocol:
as §1, §2, §3, §4

[3] abbreviates: post-emergence, 360 h, Rate 250 g/ha, post-emergence, assessed visually 15 DAA, 100%=total damage, 0%=no damage, read-out: Post-emergence herbicidal activity (percentage phytotoxicity) AVEFA POST.
The mark [4] stands for this setting: pre-emergence, 480 h, Rate 250 g/ha, pre-emergence, assessed visually 20 DAA, 100%=total damage, 0%=no damage, read-out: Pre-emergence herbicidal activity (percentage phytotoxicity) AVEFA PRE.
The mark [5] stands for this setting: post-emergence, 360 h, Rate 250 g/ha, post-emergence, assessed visually 15 DAA, 100%=total damage, 0%=no damage, read-out: Post-emergence herbicidal activity (percentage phytotoxicity) ECHCG POST.
[6] abbreviates: pre-emergence, 480 h, Rate 250 g/ha, pre-emergence, assessed visually 20 DAA, 100%=total damage, 0%=no damage, read-out: Pre-emergence herbicidal activity (percentage phytotoxicity) ECHCG PRE.
[7] abbreviates: post-emergence, 360 h, Rate 250 g/ha, post-emergence, assessed visually 15 DAA, 100%=total damage, 0%=no damage, read-out: Post-emergence herbicidal activity (percentage phytotoxicity) LOLPE POST.
Setting [8] is: pre-emergence, 480 h, Rate 250 g/ha, pre-emergence, assessed visually 20 DAA, 100%=total damage, 0%=no damage, read-out: Pre-emergence herbicidal activity (percentage phytotoxicity) LOLPE PRE.
The mark [9] stands for this setting: post-emergence, 360 h, Rate 250 g/ha, post-emergence, assessed visually 15 DAA, 100%=total damage, 0%=no damage, read-out: Post-emergence herbicidal activity (percentage phytotoxicity) ALOMY POST.
Where [10] appears, read: pre-emergence, 480 h, Rate 250 g/ha, pre-emergence, assessed visually 20 DAA, 100%=total damage, 0%=no damage, read-out: Pre-emergence herbicidal activity (percentage phytotoxicity) ALOMY PRE.

Like-named read-outs stand apart in the source and are kept apart here.

For `C/C=C/c1cc(C)c(C2C(=O)CC(CC(=O)NCc3cccc(Cl)c3)C2=O)c(C)c1` (stereo not drawn) [Compound B241], the pest or weed control at 250 g/ha in the experiment with Avena fatua (AVEFA) (post-emergence, 360 h, POST-emergence, rate 250 g/ha, visual score 15 DAA (100%=total damage, 0%=no damage), read-out: Post-emergence herbicidal activity (percentage phytotoxicity) AVEFA POST) amounted to 100%; in the experiment on Avena fatua (AVEFA) (pre-emergence, 480 h, PRE-emergence, rate 250 g/ha, visual score 20 DAA (100%=total damage, 0%=no damage), read-out: Pre-emergence herbicidal activity (percentage phytotoxicity) AVEFA PRE), 50%; in experiment [1] (post-emergence, 360 h, POST-emergence, rate 250 g/ha, visual score 15 DAA (100%=total damage, 0%=no damage), read-out: Post-emergence herbicidal activity (percentage phytotoxicity) ECHCG POST) it was 100%; in experiment [1] (pre-emergence, 480 h, PRE-emergence, rate 250 g/ha, visual score 20 DAA (100%=total damage, 0%=no damage), read-out: Pre-emergence herbicidal activity (percentage phytotoxicity) ECHCG PRE), 70%; with Lolium perenne (LOLPE) (post-emergence, 360 h, POST-emergence, rate 250 g/ha, visual score 15 DAA (100%=total damage, 0%=no damage), read-out: Post-emergence herbicidal activity (percentage phytotoxicity) LOLPE POST), 90%; in the experiment with Lolium perenne (LOLPE) (pre-emergence, 480 h, PRE-emergence, rate 250 g/ha, visual score 20 DAA (100%=total damage, 0%=no damage), read-out: Pre-emergence herbicidal activity (percentage phytotoxicity) LOLPE PRE), 80%. The pest or weed control at 250 g/ha in experiment [2] (post-emergence, 360 h, POST-emergence, rate 250 g/ha, visual score 15 DAA (100%=total damage, 0%=no damage), read-out: Post-emergence herbicidal activity (percentage phytotoxicity) ALOMY POST) was 80%; in experiment [2] (pre-emergence, 480 h, PRE-emergence, rate 250 g/ha, visual score 20 DAA (100%=total damage, 0%=no damage), read-out: Pre-emergence herbicidal activity (percentage phytotoxicity) ALOMY PRE), 60%.
Consider `C#CC(C)N(C)C(=O)CC1CC(=O)C(c2c(C)cc(C)cc2C)C1=O` (single isomer, unassigned) [Compound A183], for which the pest or weed control at 250 g/ha in the experiment with Avena fatua (AVEFA) (post-emergence, 360 h, post-emergence, 250 g/ha, 15 DAA, visual score (100%=total damage; 0%=no damage), read-out: AVEFA POST herbicidal activity (percentage phytotoxicity)) came out at 70%; in the experiment on Avena fatua (AVEFA) (pre-emergence, 480 h, pre-emergence, 250 g/ha, 20 DAA, visual score (100%=total damage; 0%=no damage), read-out: AVEFA PRE herbicidal activity (percentage phytotoxicity)), 0%; in experiment [1] (post-emergence, 360 h, post-emergence, 250 g/ha, 15 DAA, visual score (100%=total damage; 0%=no damage), read-out: ECHCG POST herbicidal activity (percentage phytotoxicity)), 80%; in experiment [1] (pre-emergence, 480 h, pre-emergence, 250 g/ha, 20 DAA, visual score (100%=total damage; 0%=no damage), read-out: ECHCG PRE herbicidal activity (percentage phytotoxicity)), 80%; in the experiment on Lolium perenne (LOLPE) (post-emergence, 360 h, post-emergence, 250 g/ha, 15 DAA, visual score (100%=total damage; 0%=no damage), read-out: LOLPE POST herbicidal activity (percentage phytotoxicity)), 70%; in the experiment on Lolium perenne (LOLPE) (pre-emergence, 480 h, pre-emergence, 250 g/ha, 20 DAA, visual score (100%=total damage; 0%=no damage), read-out: LOLPE PRE herbicidal activity (percentage phytotoxicity)), 90%. The pest or weed control at 250 g/ha in experiment [2] (post-emergence, 360 h, post-emergence, 250 g/ha, 15 DAA, visual score (100%=total damage; 0%=no damage), read-out: ALOMY POST herbicidal activity (percentage phytotoxicity)) came to 70%; in experiment [2] (pre-emergence, 480 h, pre-emergence, 250 g/ha, 20 DAA, visual score (100%=total damage; 0%=no damage), read-out: ALOMY PRE herbicidal activity (percentage phytotoxicity)) it was 50%.
For the molecule `Cc1cc(-c2ccc(Cl)cn2)cc(C)c1C1C(=O)CC(CC(=O)NCc2cccc(Cl)c2)C1=O` (stereo not drawn) [Compound A134], the pest or weed control at 250 g/ha in the experiment on Avena fatua (AVEFA) (setting [3]) was determined as 90%; in the experiment on Avena fatua (AVEFA) (setting [4]), 90%; in experiment [1] (setting [5]), 100%; in experiment [1] (setting [6]), 90%; with Lolium perenne (LOLPE) (setting [7]) it was 100%; in the experiment on Lolium perenne (LOLPE) (setting [8]) it was 80%. Further, the values for the pest or weed control at 250 g/ha in experiment [2] (setting [9]) and in experiment [2] (setting [10]) were 90% and 70%, respectively.
In the case of `Cc1cc(-c2ncc(F)cc2F)cc(C)c1C1C(=O)CC(CC(=O)NCc2ccc(C(F)(F)F)cc2)C1=O` (stereo not drawn) [Compound B89], the pest or weed control at 250 g/ha with Avena fatua (AVEFA) (post-emergence, 360 h, 250 g/ha, post-emergence, 15 DAA, visual assessment (100%=total damage, 0%=no damage), read-out: Post-emergence herbicidal activity (percentage phytotoxicity) AVEFA POST) was found to be 100%; with Avena fatua (AVEFA) (pre-emergence, 480 h, 250 g/ha, pre-emergence, 20 DAA, visual assessment (100%=total damage, 0%=no damage), read-out: Pre-emergence herbicidal activity (percentage phytotoxicity) AVEFA PRE), 60%; in experiment [1] (post-emergence, 360 h, 250 g/ha, post-emergence, 15 DAA, visual assessment (100%=total damage, 0%=no damage), read-out: Post-emergence herbicidal activity (percentage phytotoxicity) ECHCG POST), 100%; in experiment [1] (pre-emergence, 480 h, 250 g/ha, pre-emergence, 20 DAA, visual assessment (100%=total damage, 0%=no damage), read-out: Pre-emergence herbicidal activity (percentage phytotoxicity) ECHCG PRE), 100%; in the experiment with Lolium perenne (LOLPE) (post-emergence, 360 h, 250 g/ha, post-emergence, 15 DAA, visual assessment (100%=total damage, 0%=no damage), read-out: Post-emergence herbicidal activity (percentage phytotoxicity) LOLPE POST) it was 100%; with Lolium perenne (LOLPE) (pre-emergence, 480 h, 250 g/ha, pre-emergence, 20 DAA, visual assessment (100%=total damage, 0%=no damage), read-out: Pre-emergence herbicidal activity (percentage phytotoxicity) LOLPE PRE), 90%. Further, the pest or weed control at 250 g/ha came out at 100% in experiment [2] (post-emergence, 360 h, 250 g/ha, post-emergence, 15 DAA, visual assessment (100%=total damage, 0%=no damage), read-out: Post-emergence herbicidal activity (percentage phytotoxicity) ALOMY POST) and 90% in experiment [2] (pre-emergence, 480 h, 250 g/ha, pre-emergence, 20 DAA, visual assessment (100%=total damage, 0%=no damage), read-out: Pre-emergence herbicidal activity (percentage phytotoxicity) ALOMY PRE).
Regarding `Cc1cc(-n2cc(Cl)cn2)cc(C)c1C1C(=O)CC(CC(=O)NC(C)C)C1=O` (stereo not drawn) [Compound A74], the pest or weed control at 250 g/ha in the experiment with Avena fatua (AVEFA) (setting [3]) was 100%; in the experiment on Avena fatua (AVEFA) (setting [4]), 90%; in experiment [1] (setting [5]), 100%; in experiment [1] (setting [6]) it was 100%; in the experiment with Lolium perenne (LOLPE) (setting [7]) it was 90%; in the experiment with Lolium perenne (LOLPE) (setting [8]) it was 90%. Further, the pest or weed control at 250 g/ha in experiment [2] (setting [9]) and in experiment [2] (setting [10]) was 100% in each case.
As to `Cc1ccc(CNC(=O)CC2CC(=O)C(c3c(C)cc(-c4ncc(Cl)cn4)cc3C)C2=O)cc1` (stereo not drawn) [Compound B355], the pest or weed control at 250 g/ha in the experiment with Avena fatua (AVEFA) (post-emergence, 360 h, Rate 250 g/ha, post-emergence, visual assessment 15 DAA, 100%=total damage, 0%=no damage, read-out: Post-emergence herbicidal activity (percentage phytotoxicity) AVEFA POST) amounted to 90%; in the experiment on Avena fatua (AVEFA) (pre-emergence, 480 h, Rate 250 g/ha, pre-emergence, visual assessment 20 DAA, 100%=total damage, 0%=no damage, read-out: Pre-emergence herbicidal activity (percentage phytotoxicity) AVEFA PRE) it was 70%; in experiment [1] (post-emergence, 360 h, Rate 250 g/ha, post-emergence, visual assessment 15 DAA, 100%=total damage, 0%=no damage, read-out: Post-emergence herbicidal activity (percentage phytotoxicity) ECHCG POST), 100%; in experiment [1] (pre-emergence, 480 h, Rate 250 g/ha, pre-emergence, visual assessment 20 DAA, 100%=total damage, 0%=no damage, read-out: Pre-emergence herbicidal activity (percentage phytotoxicity) ECHCG PRE), 90%; with Lolium perenne (LOLPE) (post-emergence, 360 h, Rate 250 g/ha, post-emergence, visual assessment 15 DAA, 100%=total damage, 0%=no damage, read-out: Post-emergence herbicidal activity (percentage phytotoxicity) LOLPE POST) it was 100%; in the experiment on Lolium perenne (LOLPE) (pre-emergence, 480 h, Rate 250 g/ha, pre-emergence, visual assessment 20 DAA, 100%=total damage, 0%=no damage, read-out: Pre-emergence herbicidal activity (percentage phytotoxicity) LOLPE PRE), 70%. The pest or weed control at 250 g/ha in experiment [2] (post-emergence, 360 h, Rate 250 g/ha, post-emergence, visual assessment 15 DAA, 100%=total damage, 0%=no damage, read-out: Post-emergence herbicidal activity (percentage phytotoxicity) ALOMY POST) is 80%; in experiment [2] (pre-emergence, 480 h, Rate 250 g/ha, pre-emergence, visual assessment 20 DAA, 100%=total damage, 0%=no damage, read-out: Pre-emergence herbicidal activity (percentage phytotoxicity) ALOMY PRE), 50%.
